In patent US20250228862A1, “METHODS OF USING ATR INHIBITORS” (Repare Therapeutics Inc., priority 2022, published 2025):

Key:
[1] = test system: RPE1-hTERT-ΔTP53 STAG2-KO cells; test: Proliferation (confluency by microscopy) of STAG2-KO cells; type: cell-based, human; conditions: 7 days treatment; STAG2-KO clones vs WT counterpart
Procedure: FIG. 1A: Inhibition of the proliferation of STAG2-KO cells by compound 121. The STAG2 gene was knocked out in RPE1-hTERT-ATP53 cells using CRISPR-Cas9 (clone 1 and 2). Cells were then seeded in 96well plate format and treated with indicated concentrations of compound 121 for a period of 7 days. Treatment was refreshed every 4 days. Confluency was then measured using microscopy and normalized to the non-treated condition.
To assess the impact of STAG2 deficiency in the response to ATRi, we generated RPE1-hTERT-ΔTP53 deficient for STAG2 by knocking out the gene using CRISPR-Cas9. To avoid potential off-target effects, two distinct sgRNA were used to generate each KO clone.

T24 STAG2 KO cells = test: Colony formation of bladder carcinoma cells deficient for STAG2; type: cell-based; conditions: 9 days treatment, crystal violet
Procedure: FIG. 2: compound 121 preferentially induces cell death in bladder carcinoma cells deficient for STAG2. The STAG2 gene was knocked out in T24 cells using CRISPR-Cas9 (clone 1 and 2). Cells were seeded in 6-well plate format and treated with indicated dose of compound 121 for 9 days. Cells were then fixed and stained using a crystal violet-methanol solution. Colonies were counted, and percentage of survival was determined by normalizing the number of colonies after treatment to the number of colonies in the non-treated conditions.
Because bladder carcinoma is a cancer where STAG2-deficient tumors have been observed, we sought to recapitulate our observation in a cell model originated from bladder carcinoma. Using a similar approach as previously, we generated T24 cells deficient for STAG2.

[2] = test system: CDK12 wild-type (+/+) and knockout (−/−) RPE1 TP53−/− cells; test: CellTiter Glo viability, isogenic CDK12 +/+ and -/- RPE1 TP53-/- cells; type: cell-based, human; conditions: RPE1-hTERT-ΔTP53
Procedure: (§1) FIG. 5A: Dose-response curves of isogenic CDK12 wild-type (+/+) and knockout (−/−) RPE1 TP53−/− cells treated with compound 121. Cell viability was measured by CellTiter Glo assays. Open symbols represent mean from three independent experiments±SD. Solid lines show a non-linear least square fit to a four-parameter dose-response model. Approximately a 2× shift in IC50 was observed.
To assess the effect of CDK12 inactivation on ATRi sensitivity we used isogenic cell line pairs in the RPE1-hTERT-ΔTP53 and DLD1 human cell line backgrounds, where we compared clones carrying a CRISPR/Cas9-generated knockout of the CDK12 gene (CDK12−/−) with the parental, CDK12-wild type controls (CDK12+/+).

[3] = test system: RNASEH2B wild-type (+/+) and knockout (−/−) RPE1 TP53−/− cells; test: CellTiter Glo viability, isogenic RNASEH2B +/+ and -/- RPE1 TP53-/- cells; type: cell-based, human; conditions: RPE1-hTERT-ΔTP53
Procedure: as §1, with “6A:” for “5A:”, “RNASEH2B” for “CDK12”, “model. […]” for “model.”, “4×” for “2×”
(§2) The RNase H2 protein complex is composed of three subunits encoded by the RNASEH2A, RNASEH2B and RNASEH2C genes in a manner, where all three subunits are required for the complex' stability and activity. To determine whether RNase H2 deficiency increases cellular sensitivity to ATRi, we inactivated the RNASEH2B gene in two human cell lines, RPE1-hTERT-ΔTP53 and 5637, using CRISPR/Cas9 (note that this leads to complete loss of the RNase H2 complex).

[4] = test system: RNASEH2B wild-type (+/+) and knockout (−/−) 5637 cells; test: CellTiter Glo viability, isogenic RNASEH2B +/+ and -/- 5637 cells; type: cell-based, human
Procedure: as §1, with “6B:” for “5A:”, “RNASEH2B” for “CDK12”, “5637” for “RPE1 TP53−/−”, “model. […]” for “model.”, “4×” for “2×”
as §2

[5] = test system: 5637 RNASEH2B−/− bladder cancer cell line tumors; test: Subcutaneous xenograft tumor growth, 5637 RNASEH2B-/-; type: in vivo, mice; conditions: oral gavage once daily, 2 day on/4 day off weekly schedule
Procedure: FIG. 7B: Growth of subcutaneously grafted 5637 RNASEH2B−/− bladder cancer cell line tumors in immunodeficient mice. Mice were treated by oral gavage with either vehicle or indicated doses of compound 121 once daily at a 2 day on/4 day off weekly schedule. Data are shown as mean±SEM. N=8 mice/group.
To confirm that RNase H2-deficiency sensitizes to ATRi treatment also in vivo, we developed the isogenic 5637 RNASEH2B+/+ and RNASEH2B−/− bladder carcinoma cell lines as subcutaneous xenografts in immunodeficient mice and treated them with compound 121 or a vehicle control. […] Furthermore, we identified a patient-derived xenograft (PDX) of a triple negative breast cancer, that was RNase H2-deficient as confirmed by immunohistochemistry with a RNase H2-specific antibody.

RPE1 Cas9 TP53−/− cells = test: CellTiter Glo viability after sgRNA inactivation of RAD51B, RAD51C or RAD51D; type: cell-based, human
Procedure: (§3) FIG. 9A: compound 121 dose-response curves of RPE1 Cas9 TP53−/− cells transduced with either a control sgRNA (sgAAVS1) or two sgRNAs targeting RAD51B. Cell viability was determined with a CellTiter Glo assay. Open symbols show mean viability from three independent experiments±SD. Solid lines represent a non-linear least square fit to a four-parameter dose-response model.
as §3, with “9B:” for “9A:”, “RAD51C.” for “RAD51B.”
as §3, with “9C:” for “9A:”, “RAD51D.” for “RAD51B.”
To determine the impact of RAD51B, RAD51C or RAD51D deficiency on ATRi sensitivity we individually inactivated these genes in Cas9-expressing RPE1-hTERT-ΔTP53 cells using two independent sgRNAs per gene.

For `C[C@@H]1COCCN1c1cc([C@]2(O)C[C@H]3CC[C@@H](C2)O3)c2cnn(-c3cc[nH]n3)c2n1` [compound 121], which “Inhibition of proliferation (confluency normalized to non-treated), STAG2-KO vs wild-type” value [1] is on record?
The value was “significantly stronger inhibition of proliferation in STAG2-KO cells”.

What about the “Colony formation after treatment, T24-STAG2 KO” value (T24 STAG2 KO cells) of the same compound?
Its value is “colony formation of T24-STAG2 KO cells was impaired”.

What about the “Sensitivity of CDK12-deficient vs parental cells” value [2] of the same compound?
Its value is “increased sensitivity”.

And the “Sensitivity of RNase H2-deficient vs wild-type cells” value [3]?
Its value is “more sensitive”.

And the “Sensitivity of RNase H2-deficient vs wild-type cells” value [4]?
Its value is “more sensitive”.

What about the Tumor growth inhibition [5] of the same compound?
Its Tumor growth inhibition is “profound and dose-dependent tumor growth inhibition”.

And the “Sensitization upon gene inactivation (CTG viability)” value (shortened to “Sensitization upon gene inactivation”) (RPE1 Cas9 TP53−/− cells; two sgRNAs targeting RAD51B vs sgAAVS1)?
Its value is “sensitized cells to compound 121 treatment to a comparable extent”.

What about the “Sensitization upon gene inactivation” value (RPE1 Cas9 TP53−/− cells; two sgRNAs targeting RAD51C vs sgAAVS1) of the same compound?
Its value is “sensitized cells to compound 121 treatment to a comparable extent”.

And the “Sensitization upon gene inactivation” value (RPE1 Cas9 TP53−/− cells; two sgRNAs targeting RAD51D vs sgAAVS1)?
The value was “sensitized cells to compound 121 treatment to a comparable extent”.
